Measured values: the NIST ThermoML archive (doi:10.1016/j.tca.2013.07.012)

Experiment: xn = mol fraction of the nth substance listed
Settings: 101 kPa, Liquid, Vibrating tube method

OCC(O)CO [glycerol] + O
Settings | mass density [kg/m3]
274.15 K, x1 = 0.00209 | 1002.52
274.15 K, x1 = 0.00439 | 1005.4
274.15 K, x1 = 0.0051 | 1006.27
274.15 K, x1 = 0.00657 | 1008.08
274.15 K, x1 = 0.01072 | 1013.09
274.15 K, x1 = 0.01633 | 1019.67
275.15 K, x1 = 0.00209 | 1002.55
275.15 K, x1 = 0.00439 | 1005.42
275.15 K, x1 = 0.0051 | 1006.29
275.15 K, x1 = 0.00657 | 1008.09
275.15 K, x1 = 0.01072 | 1013.08
275.15 K, x1 = 0.01633 | 1019.63
276.15 K, x1 = 0.00209 | 1002.56
276.15 K, x1 = 0.00439 | 1005.42
276.15 K, x1 = 0.0051 | 1006.29
276.15 K, x1 = 0.00657 | 1008.08
276.15 K, x1 = 0.01072 | 1013.06
276.15 K, x1 = 0.01633 | 1019.58
277.15 K, x1 = 0.00209 | 1002.56
277.15 K, x1 = 0.00439 | 1005.41
277.15 K, x1 = 0.0051 | 1006.27
277.15 K, x1 = 0.00657 | 1008.06
277.15 K, x1 = 0.01072 | 1013.02
277.15 K, x1 = 0.01633 | 1019.51
278.15 K, x1 = 0.00209 | 1002.54
278.15 K, x1 = 0.00439 | 1005.38
278.15 K, x1 = 0.0051 | 1006.24
278.15 K, x1 = 0.00657 | 1008.02
278.15 K, x1 = 0.01072 | 1012.95
278.15 K, x1 = 0.01633 | 1019.43
278.15 K, x1 = 0.03504 | 1039.54
278.15 K, x1 = 0.05086 | 1054.94
278.15 K, x1 = 0.06775 | 1069.92
278.15 K, x1 = 0.1127 | 1103.61
278.15 K, x1 = 0.1559 | 1129.3
278.15 K, x1 = 0.206 | 1153.22
278.15 K, x1 = 0.256 | 1172.3
278.15 K, x1 = 0.3311 | 1194.33
278.15 K, x1 = 0.4012 | 1210
278.15 K, x1 = 0.4907 | 1225.46
278.15 K, x1 = 0.5828 | 1237.72
278.15 K, x1 = 0.6857 | 1248.63
278.15 K, x1 = 0.7494 | 1254.28
278.15 K, x1 = 0.8101 | 1259.12
278.15 K, x1 = 0.8528 | 1262.2
278.15 K, x1 = 0.882 | 1264.21
278.15 K, x1 = 0.9143 | 1266.2
278.15 K, x1 = 0.9408 | 1267.71
278.15 K, x1 = 0.9578 | 1268.67
278.15 K, x1 = 0.9792 | 1269.86
278.15 K, x1 = 0.9895 | 1270.39
278.15 K, x1 = 1 | 1270.87
279.15 K, x1 = 0.00209 | 1002.51
279.15 K, x1 = 0.00439 | 1005.34
279.15 K, x1 = 0.0051 | 1006.19
279.15 K, x1 = 0.00657 | 1007.97
279.15 K, x1 = 0.01072 | 1012.88
279.15 K, x1 = 0.01633 | 1019.34
280.15 K, x1 = 0.00209 | 1002.46
280.15 K, x1 = 0.00439 | 1005.28
280.15 K, x1 = 0.0051 | 1006.13
280.15 K, x1 = 0.00657 | 1007.91
280.15 K, x1 = 0.01072 | 1012.8
280.15 K, x1 = 0.01633 | 1019.23
281.15 K, x1 = 0.00209 | 1002.4
281.15 K, x1 = 0.00439 | 1005.21
281.15 K, x1 = 0.0051 | 1006.06
281.15 K, x1 = 0.00657 | 1007.82
281.15 K, x1 = 0.01072 | 1012.7
281.15 K, x1 = 0.01633 | 1019.12
282.15 K, x1 = 0.00209 | 1002.33
282.15 K, x1 = 0.00439 | 1005.13
282.15 K, x1 = 0.0051 | 1005.97
282.15 K, x1 = 0.00657 | 1007.73
282.15 K, x1 = 0.01072 | 1012.6
282.15 K, x1 = 0.01633 | 1018.99
283.15 K, x1 = 0.00209 | 1002.24
283.15 K, x1 = 0.00439 | 1005.03
283.15 K, x1 = 0.0051 | 1005.87
283.15 K, x1 = 0.00657 | 1007.62
283.15 K, x1 = 0.01072 | 1012.47
283.15 K, x1 = 0.01633 | 1018.85
288.15 K, x1 = 0.00209 | 1001.6
288.15 K, x1 = 0.00439 | 1004.35
288.15 K, x1 = 0.0051 | 1005.18
288.15 K, x1 = 0.00657 | 1006.91
288.15 K, x1 = 0.01072 | 1011.69
288.15 K, x1 = 0.01633 | 1017.97
288.15 K, x1 = 0.03504 | 1037.45
288.15 K, x1 = 0.05086 | 1052.38
288.15 K, x1 = 0.06775 | 1066.9
288.15 K, x1 = 0.1127 | 1099.65
288.15 K, x1 = 0.1559 | 1124.77
288.15 K, x1 = 0.206 | 1148.15
288.15 K, x1 = 0.256 | 1166.85
288.15 K, x1 = 0.3311 | 1188.67
288.15 K, x1 = 0.4012 | 1204.31
288.15 K, x1 = 0.4907 | 1219.67
288.15 K, x1 = 0.5828 | 1231.79
288.15 K, x1 = 0.6857 | 1242.54
288.15 K, x1 = 0.7494 | 1248.04
288.15 K, x1 = 0.8101 | 1252.82
288.15 K, x1 = 0.8528 | 1255.81
288.15 K, x1 = 0.882 | 1257.79
288.15 K, x1 = 0.9143 | 1259.78
288.15 K, x1 = 0.9408 | 1261.27
288.15 K, x1 = 0.9578 | 1262.21
288.15 K, x1 = 0.9792 | 1263.39
288.15 K, x1 = 0.9895 | 1263.91
288.15 K, x1 = 1 | 1264.4
293.15 K, x1 = 0.00209 | 1000.68
293.15 K, x1 = 0.00439 | 1003.39
293.15 K, x1 = 0.0051 | 1004.21
293.15 K, x1 = 0.00657 | 1005.92
293.15 K, x1 = 0.01072 | 1010.64
293.15 K, x1 = 0.01633 | 1016.84
293.15 K, x1 = 0.03504 | 1036.06
293.15 K, x1 = 0.05086 | 1050.82
293.15 K, x1 = 0.06775 | 1065.15
293.15 K, x1 = 0.1127 | 1097.5
293.15 K, x1 = 0.1559 | 1122.35
293.15 K, x1 = 0.206 | 1145.51
293.15 K, x1 = 0.256 | 1164.09
293.15 K, x1 = 0.3311 | 1185.75
293.15 K, x1 = 0.4012 | 1201.28
293.15 K, x1 = 0.4907 | 1216.63
293.15 K, x1 = 0.5828 | 1228.62
293.15 K, x1 = 0.6857 | 1239.29
293.15 K, x1 = 0.7494 | 1244.78
293.15 K, x1 = 0.8101 | 1249.51
293.15 K, x1 = 0.8528 | 1252.47
293.15 K, x1 = 0.882 | 1254.43
293.15 K, x1 = 0.9143 | 1256.38
293.15 K, x1 = 0.9408 | 1257.87
293.15 K, x1 = 0.9578 | 1258.81
293.15 K, x1 = 0.9792 | 1259.97
293.15 K, x1 = 0.9895 | 1260.49
293.15 K, x1 = 1 | 1260.99
298.15 K, x1 = 0.00209 | 999.49
